pEC50: −log10 of the molar value.
target: T1, human parathyroid cell Ca2+ receptor (hPCaR) (Homo sapiens, UniProt P41180); assay: [Ca2+]i measurement (fluo-3 fluorescence) in HEK 293 4.0-7 cells stably transfected with hPCaR; format: cell-based; details: HEK 293 4.0-7 cells expressing hPCaR; fluo-3, excitation 485 nm / emission 530 nm
T1 construct: expressed in transfected cells
T1 sequence (P41180 20-1078): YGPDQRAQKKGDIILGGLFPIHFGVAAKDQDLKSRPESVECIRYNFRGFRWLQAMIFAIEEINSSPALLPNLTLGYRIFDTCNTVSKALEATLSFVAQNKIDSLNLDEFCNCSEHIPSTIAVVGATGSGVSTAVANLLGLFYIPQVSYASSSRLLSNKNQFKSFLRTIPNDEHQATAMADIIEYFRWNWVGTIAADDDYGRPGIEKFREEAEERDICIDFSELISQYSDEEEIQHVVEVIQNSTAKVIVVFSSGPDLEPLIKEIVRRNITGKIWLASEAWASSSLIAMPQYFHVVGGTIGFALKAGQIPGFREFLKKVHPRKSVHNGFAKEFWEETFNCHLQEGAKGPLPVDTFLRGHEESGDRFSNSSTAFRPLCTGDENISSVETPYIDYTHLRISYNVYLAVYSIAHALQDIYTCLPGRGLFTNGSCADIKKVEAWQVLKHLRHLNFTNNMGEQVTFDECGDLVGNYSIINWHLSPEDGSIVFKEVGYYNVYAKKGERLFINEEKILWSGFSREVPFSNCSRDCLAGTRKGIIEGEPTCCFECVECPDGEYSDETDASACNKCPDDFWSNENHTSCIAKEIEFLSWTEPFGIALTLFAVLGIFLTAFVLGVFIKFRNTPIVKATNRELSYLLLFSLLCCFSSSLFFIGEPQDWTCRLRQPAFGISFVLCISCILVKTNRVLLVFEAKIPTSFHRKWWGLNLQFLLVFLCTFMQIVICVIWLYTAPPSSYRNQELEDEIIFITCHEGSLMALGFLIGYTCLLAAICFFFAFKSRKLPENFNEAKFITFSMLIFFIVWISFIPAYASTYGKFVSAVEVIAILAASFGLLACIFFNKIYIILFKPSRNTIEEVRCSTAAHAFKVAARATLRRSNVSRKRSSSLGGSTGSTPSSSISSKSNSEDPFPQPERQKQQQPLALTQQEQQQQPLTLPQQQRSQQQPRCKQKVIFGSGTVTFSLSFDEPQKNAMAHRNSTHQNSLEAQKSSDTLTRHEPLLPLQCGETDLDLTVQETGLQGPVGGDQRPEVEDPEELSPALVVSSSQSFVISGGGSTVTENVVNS
Procedure: The activities of the compounds of the present invention on calcium receptors were measured. In one embodiment, the measurement was performed in accordance with the method described in Example 4 of Nemeth et al., PCT/US95/13704 (International Publication No. WO96/12697) herein incorporated by reference.
A 4.0-kb NotI-HindIII fragment of the human parathyroid cell Ca^2+ receptor (hPCaR) cDNA was subcloned into the mammalian expression vector pCEP4 (Invitrogen) containing the hygromycin-resistant gene as a selectable marker. This plasmid was transfected into HEK 293 cells by calcium phosphate precipitation. Transfected cells were grown in Dulbecco's modified Eagle's medium containing 10% fetal bovine serum and hygromycin (200 μg/mL). Hygromycin-resistant colonies were subcloned and assayed for hPCaR mRNA by solution hybridization using a ^32P-labeled RNA probe complementary to the (4.0 kb) hPCaR sequence (Garrett, et al., J. Biol. Chem. 270, 12919–12925 (1995)). Clone 7 was used to assess the effects of compounds on [Ca^2+]i. This stably transfected cell line is termed HEK 293 4.0–7. For measurements of [Ca^2+]i, the cells were recovered from tissue culture flasks by brief treatment with 0.02% EDTA and then washed and resuspended in PCB containing 1 mM CaCl2 and 0.1% Bovine Serum Albumin (“BSA”). The cells were loaded with fluo-3 by incubation for 30 min at 37° C., with parathyroid cell buffer (126 mM NaCl, 4 mM KCl, 1 mM MgSO4, 0.7 mM K2HPO4/KH2PO4, 20 mM HEPES.NaOH (pH 7.45)) containing 0.5% BSA in 1 mM CaCl2 and 2 μM fluo-3 acetoxymethyl ester. The cells were subsequently washed, each test compound was added to the cells and the fluorescence was recorded by using excitation and emission wavelengths of 485 and 530 nm, respectively.

pEC50, ≥ 5.00:
CCn1c2ccccc2c2cc(CN[C@H](C)c3cccc4ccccc34)ccc21 [(R)-N-(1-(1-Naphthyl)ethyl)-N-(9-ethyl-3-carbazolylmethyl)amine]
CCn1c2ccccc2c2cc(CN[C@H](C)c3cccc(OC)c3)ccc21 [(R)-N-(1-(3-Methoxyphenyl)ethyl)-N-(9-ethyl-3-carbazolylmethyl)amine]
CCn1nc2ccc(CN[C@H](C)c3cccc4ccccc34)cc2n1 [Example 4, (R)-N-(1-(1-Naphthyl)ethyl)-N-(2′-ethyl-benzotriazol-5-ylmethyl)amine]
CCn1nc2ccc(CN[C@H](C)c3cccc(OC)c3)cc2n1 [Example 5, (R)-N-(1-(3-Methoxyphenyl)ethyl)-N-(2′-ethyl-benzotriazol-5-ylmethyl)amine]
CCn1nc2ccc(CN[C@H](C)c3ccccc3)cc2n1 [Example 6, (R)-N-(1-(Phenyl)ethyl)-N-(2′-ethyl-benzotriazol-5-ylmethyl)amine]
CCn1c2ccc(CN[C@H](C)c3cccc(OC)c3)cc2c2cc(OC)ccc21 [Example 8, (R)-N-(1-(3-Methoxyphenyl)ethyl)-N-(9-ethyl-6-methoxy-3-carbazolylmethyl)amine]
CCn1c2c(c3cc(CN[C@H](C)c4ccccc4)ccc31)CCC2 [Example 10]
C[C@@H](NCc1ccc2c(c1)ncn2C)c1cccc2ccccc12 [Example 11, (R)-N-(1-(1-Naphthyl)ethyl)-N-((1-methylbenzimidazol-5-yl)methyl)amine]
C[C@@H](NCc1ccc2c(c1)ncn2C)c1ccccc1 [Example 12, (R)-N-(1-(Phenyl)ethyl)-N-((1-methylbenzimidazol-5-yl)methyl)amine]
CCn1c2c(c3cc(CN[C@H](C)c4ccccc4)ccc31)CN(C)CC2 [Example 13]
CCn1c2c(c3cc(CN[C@H](C)c4cccc(OC)c4)ccc31)CN(C)CC2 [Example 14]
CCn1c2ccccc2c2cc(CN[C@H](C)c3ccccc3)ccc21 [Example 17, (R)-N-(1-(Phenyl)ethyl)-N-(9-ethyl-3-carbazolylmethyl)amine]
CCn1ccc2cc(CN[C@H](C)c3cccc4ccccc34)ccc21 [Example 18, (R)-N-(1-(1-Naphthyl)ethyl)-N-((1-ethylindole-5-yl)methyl)amine]
CCn1c2c(c3cc(CN[C@H](C)c4ccccc4)ccc31)COCC2 [Example 19]
CCn1c2c(c3cc(CN[C@H](C)c4cccc(OC)c4)ccc31)COCC2 [Example 20]
CCn1c2c(c3cc(CN[C@H](C)c4cccc5ccccc45)ccc31)COCC2 [Example 21]
C[C@@H](NCc1ccc2c(c1)c1ccccc1n2CCCN(C)C)c1cccc2ccccc12 [Example 24]
C[C@@H](NCc1ccc2[nH]ccc2c1)c1cccc2ccccc12 [Example 25, (1R)-N-(1H-indol-5-ylmethyl)-1-(1-naphthalenyl)ethanamine]
CCn1cc(-c2ccccc2)c2cc(CN[C@H](C)c3ccccc3)ccc21 [Example 28, (1R)-N-((1-ethyl-3-phenyl-1H-indol-5-yl)methyl)-1-phenylethanamine]
CCn1cc(-c2ccc(OC(F)(F)F)cc2)c2cc(CN[C@H](C)c3ccccc3)ccc21 [Example 29, (1R)-N-((1-ethyl-3-(4-((trifluoromethyl)oxy)phenyl)-1H-indol-5-yl)methyl)-1-phenylethanamine]
